According to ChEMBL document CHEMBL1132656, “Design of highly active analogues of the pyrrolo[1,2-a]benzimidazole antitumor agents” (1999):

What was measured:
Mus musculus [1] = organism: Mus musculus; assay: The compound was tested for its ability to get to the tumor site after indicates that there is a percent T/C of 50 or < 50(tumor mass 50% or < the control)]; type: functional; set-up: scale not given here
Mus musculus [2] = assay: The compound was tested for its ability to get to the tumor site after subcutaneous administration [Score of 2 indicates that there is a percent T/C of 50 or < 50(tumor mass 50% or < the control)]; type: functional

CC(=O)N[C@H]1CCn2c1nc1c2C(=O)C(C)=C(N2CC2)C1=O
Intraperitonal score (Mus musculus [1]): 38
Subcutaneous score (Mus musculus [2]): 14

CC1=C(N2CC2)C(=O)c2nc3n(c2C1=O)CCC3OC(N)=O (stereo not drawn)
Intraperitonal score (Mus musculus [1]): 24
Subcutaneous score (Mus musculus [2]): 6

CC(=O)NC1CCn2c1nc1c2C(=O)C(C)=C(N2CC2)C1=O (stereo not drawn)
Intraperitonal score (Mus musculus [1]): 46
Subcutaneous score (Mus musculus [2]): 6

CC(=O)OC1CCn2c1nc1c2C(=O)C(C)=C(N2CC2)C1=O (stereo not drawn)
Intraperitonal score (Mus musculus [1]): 40
Subcutaneous score (Mus musculus [2]): 8
